According to US20240131038A1, “ANTI-INFLAMMATORY COMPOSITIONS COMPRISING CANNABIDIOL, DELTA-9-TETRAHYDROCANNABINOL AND LINALOOL” (Cymra Life Sciences Limited, priority 2020, published 2024):
Where two headings read alike, the source gives them in different places.

Legend:
Assay type in all cases: cell-based, murine
Settings in all cases: for IC50: Mus musculus
NO release = experiment: Nitric oxide (NO) assay: NO release in LPS-stimulated RAW264.7 macrophages (Griess reagent)
Protocol: (§1) Anti-inflammatory activity was determined in lipopolysaccharide (LPS) stimulated murine macrophages, RAW264.7 cells cultured in standard cell culture media (DMEM, Fetal bovine serum 5%) and incubated in the presence or absence of different test compounds/extracts and controls. The production of inflammatory mediators, including NO, cytokines TNFα and IL-6, were measured by established methods using commercial ELISA kits (Table 3). Each sample was tested with at least 6 concentrations (using 3 replicates; i.e., n=9), with relevant internal controls (Table 3). The cytotoxicity of each sample tested was determined by MTT assay.
(§2) Briefly, for the NO, TNFα and IL-6 assays the cultured RAW264.7 cells were counted and plated (0.8×10^5 cells/well) in 96 well plates and incubated for 48 hours. The medium was then aspirated and replaced with fresh medium followed by the addition of the test compounds. The compounds were incubated for 1 hour prior to the addition of the stimulant. The plates were then incubated for 18 hours and the supernatant analyzed for the inflammatory mediator of interest, the remaining cell viability was determined by MTT.
(§3) The data are presented as mean and standard error of mean (SEM). The dose response curves were fit using Graph Pad Prism. The 95% confidence intervals (CI) were calculated using the whole data set and give an estimate error in the IC50 value. The 95% CI for the IC50 where the IC50 was not reached in the testing concentrations require graphical extrapolation to calculate the IC50. Where the IC50 has been estimated by graphical extrapolation “˜” is used to indicate that it is an estimate and not experimentally determined, unless otherwise stated. The graphical extrapolation results in a wider 95% confidence interval.
(§4) The synergism combination index (CI) and isobologram IC50 weightings were calculated using Compsyn software. The dose response curve generated in GraphPad prism was transformed into 15 points representing the curve. These 15 points were then entered into the Compsyn program that generated a curve to fit the data points. This method was preferable to closely replicate the complete dose response curve in the synergy program. The Compsyn fit curve was then used for synergy calculations.
(§5) A CI value of less than 0.5 is considered highly synergistic, a CI of less than 1 indicates synergy, a CI of from 1.5 to 1 is considered additive, a CI of from 4 to 1.5 is indifferent and a CI greater than 4 is considered antagonism.

IL-6 release = experiment: IL-6 assay: IL-6 release in LPS-stimulated RAW264.7 macrophages (ELISA)
Protocol: as §1, §2, §3, §4, §5

TNF-α release = experiment: TNF-α assay: TNF-α release in LPS-stimulated RAW264.7 macrophages (ELISA)
Protocol: as §1, §2, §3, §4, §5

[1] = RAW264.7, 18 h, read-out: IC50 for NO inhibition
[2] = RAW264.7, read-out: Compusyn IC50
[3] = RAW264.7, 18 h, IL-6 assay, total concentration of the combination, Table 11, read-out: GraphPad IC50
[4] = RAW264.7, IL-6 assay, Compusyn fit curve, Table 11, read-out: Compusyn IC50
[5] = LPS-stimulated RAW264.7 cells, 18 h, Table 10, read-out: IC50 for IL-6 inhibition
[6] = RAW264.7, 18 h, TNF-α inhibition, total concentration of the combination, Table 8, read-out: GraphPad IC50
[7] = RAW264.7, TNF-α inhibition, Compusyn fit curve, Table 8, read-out: Compusyn IC50
[8] = LPS-stimulated RAW264.7 cells, 18 h, Table 7, read-out: IC50 for TNF-α inhibition

SMILES | IC50 (NO release; [1]) [mg/L] | NO inhibition and synergy, result in words (NO release; LPS-stimulated RAW264.7 cells) | IC50 (NO release; [2]) [mg/L] | IL-6 inhibition and synergy, result in words (IL-6 release; LPS-stimulated RAW264.7 cells) | IC50 (IL-6 release; [3]) [mg/L] | IC50 (IL-6 release; [4]) [mg/L] | IC50 (IL-6 release; [5]) [mg/L] | TNF-α inhibition and synergy, result in words (TNF-α release; LPS-stimulated RAW264.7 cells) | IC50 (TNF-α release; [6]) [mg/L] | IC50 (TNF-α release; [7]) [mg/L] | IC50 (TNF-α release; [8]) [mg/L] | Compusyn IC50 (NO release; NO assay, Table 6) [mg/L] | Compusyn IC50 (IL-6 release; IL-6 assay, Table 12) [mg/L] | Compusyn IC50 (TNF-α release; TNF-α assay, Table 9) [mg/L]
CC(=N)NCc1cccc(CN)c1 [1400 W, N-(3-(Aminomethyl)benzyl)acetamidine] | 1.2 | – | – | – | – | – | – | – | – | – | – | – | – | –
C=C(C)[C@@H]1CCC(C)=C[C@H]1c1c(O)cc(CCCCC)cc1O [CBD, cannabidiol] | 1.4 | most active compound for NO inhibition | 1.4 | most active compound for IL-6 inhibition | 1.4 | 1.4 | 1.4 | most active compound for TNF-α inhibition | 4.6 | 4.6 | 4.6 | – | – | –
C[C@@H]1C[C@H]2[C@@H]3CCC4=CC(=O)C=C[C@]4(C)[C@@]3(F)[C@@H](O)C[C@]2(C)[C@@]1(O)C(=O)CO [Dexamethasone, dexamethasone] | – | – | – | – | – | – | 0.016 | – | – | – | 2.7 | – | – | –
C=CC(C)(O)CCC=C(C)C (stereo not drawn) [Linalool, linalool] | > 240 | – | > 240 | – | > 240 | > 240 | > 240 | – | > 240 | > 240 | > 240 | >240 | >240 | >240
CCCCCc1cc(O)c2c(c1)OC(C)(C)[C@@H]1CCC(C)=C[C@@H]21 [THC, Δ-9-tetrahydrocannabinol] | 6.5 | – | 6.5 | – | 4.2 | 4.2 | 4.2 | – | 44 | 45 | 44 | – | – | –
